According to paper PMC8414367, “(E)-7-Ethylidene-lithocholic Acid (7-ELCA) Is a Potent Dual Farnesoid X Receptor (FXR) Antagonist and GPBAR1 Agonist Inhibiting FXR-Induced Gene Expression in Hepatocytes and Stimulating Glucagon-like Peptide-1 Secretion From Enteroendocrine Cells” (Frontiers in Pharmacology, 2021):
Entries after “also recorded” stand apart in the source; their conditions may differ.

How the values were obtained:
[1] = system: NCI-H716 cells; assay: GLP-1 secretion (ELISA) in differentiated NCI-H716 cells; assay type: cell-based, human; conditions: 10 µM, 2 h, listed as 7-ELCA
[2] = molecular target: thyroid receptor (TRα) (Homo sapiens, UniProt P10827); assay: Nuclear receptor specificity luciferase reporter assay in HepG2 cells
[3] = molecular target: T1, GPBAR1 (Homo sapiens, UniProt Q8TDU6); assay: GPBAR1 CRE-luc luciferase reporter assay in HepG2 cells; assay type: cell-based; conditions: for CRE-luc activation compared to LCA (in words): 10 µM, 5 h, LCA 10 µM set as 100%
T1 construct: host or cells: HepG2
T1 sequence (Q8TDU6 1-330): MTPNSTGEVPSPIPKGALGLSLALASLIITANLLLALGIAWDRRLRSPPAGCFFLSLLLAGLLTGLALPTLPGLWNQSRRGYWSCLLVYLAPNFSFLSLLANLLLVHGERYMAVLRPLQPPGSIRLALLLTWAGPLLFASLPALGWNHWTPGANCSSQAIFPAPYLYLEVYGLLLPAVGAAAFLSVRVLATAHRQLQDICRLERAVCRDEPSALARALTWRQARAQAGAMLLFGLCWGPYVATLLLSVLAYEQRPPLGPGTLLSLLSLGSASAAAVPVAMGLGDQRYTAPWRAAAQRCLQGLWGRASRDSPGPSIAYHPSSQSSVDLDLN
Protocol: (C) Effects of LCA and 7-ELCA (both at 10 µM) on intracellular generation of cAMP in differentiated NCI-H716 cells after 30 min treatment. The increase in cAMP level (ΔcAMP) is presented as the difference between cAMP concertation in the treated sample after subtraction of the cAMP in the nontreated control sample. (D) Concentration-response curves for activation of GPBAR1 by LCA and 7-ELCA. EC50 values were calculated using nonlinear fitting of concentration-response curves. […] GLP-1 was normalized to protein concentration and GPBAR1 mRNA expression to GAPDH mRNA. Data are presented as a fold to control nontreated (NT) samples. Forskolin (FSK, 10 µM) was used as a GPBAR1-independent activator of cAMP production.

[4] = molecular target: vitamin D receptor (VDR) (Homo sapiens, UniProt P11473); assay: Nuclear receptor specificity luciferase reporter assay in HepG2 cells
Protocol: (§3) For transient transfection, HepG2 cells were seeded at the density of 40,000 cells/cm^2. […] The next day, cells were challenged with tested ligands in indicated concentrations for 5 h. […] All the other transient transfection reporter gene assays were performed with Lipofectamine® 3000 (ThermoFisher Scientific). Briefly, cells were transfected with 150 ng/well luciferase reporter gene constructs (p(DR3)3-luc, SHP-luc, p3A4-luc, pTAT-(GRE)2-TK-luc, p2B6-luc, pGL4.35[luc2P⁄9XGAL4UAS⁄Hygro]), FXRE-luc together with 100 ng/well of the corresponding full-length fragment nuclear receptor expression vectors (pSG5-hVDR, pSG5-hFXR, pSG5-hRXRα, pSG5-hPXR, CAR3 variant) or the ligand binding domains of human, pCMX-GAL4-hFXR, pCMX-GA4L-LXRα, pCMX-GA4L-LXRα, pCMX-GA4L-TRα, pCMX-GA4L-PPARα, pCMX-GAL4-PPARγ, pCMX-GAL4-PPARδ) and 30 ng/well of pRL-TK Renilla luciferase vector 24 h prior to the treatment. […] The firefly luciferase activity was measured using the Dual Luciferase® Reporter Assay System (Promega) and normalized to Renilla luciferase activity. Experiments in an agonistic mode were performed with OCA, CDCA or tested compounds (all compounds at 10 μM). […] EC50 and IC50 were calculated using GraphPad PRISM ver. […]
(§4) Data were normalized to Renilla luciferase activity and are expressed as fold activation relative to control (nontreated, NT) cells. […]

[5] = system: BSEP and SHP mRNA (FXR target genes), HepaRG cells; assay: RT-qPCR of FXR target genes in differentiated HepaRG cells; assay type: cell-based, human; conditions: for BSEP mRNA level upregulated by OCA / SHP mRNA level upregulated by OCA: 40 µM with OCA 1 µM, 24 h; for BSEP and SHP mRNA expression, compound per se: without OCA
Description: Total RNA from HepaRG cells or primary human hepatocyte samples was isolated by the phenol/chloroform method with TRI-reagent (Merck) according to the manufacturer's protocol. The cDNA was synthesized using a Tetro cDNA Synthesis Kit (Bioline, now Meridian Bioscience, Memphis, United States), and RT-qPCR was run in the Quant Studio 6 instrument using the Fast Advanced Master Mix (ThermoFisher Scientific, Waltham, United States) according to the MIQE protocols. All the probes were obtained from ThermoFisher Scientific: ABCB11 (BSEP, Hs00184824_m1), NR0B2 (SHP, Hs00222677_m1).
FIGURE 6 Regulation of FXR downstream genes by 7-ELCA and 7β-propyl-CDCA in the presence or absence of 1 µM OCA as the potent FXR agonist. Real-time qPCR analysis of mRNA expression of (A,C) BSEP and (B,D) SHP genes was performed in terminally differentiated HepaRG hepatic cells (A,B), and in primary human hepatocytes (PHH) from one donor treated for 24 h (C,D). (E) SHP protein expression in HepaRG cells after 48 h treatment with OCA alone or in combination with 7-ELCA and 7β-propyl-CDCA. Data were normalized to B2M mRNA or GAPDH protein and are expressed relative to those of control (vehicle-treated) cells.

[6] = molecular target: constitutive androstane receptor (CAR) (Homo sapiens, UniProt Q14994, DEL233-236); assay: Nuclear receptor specificity luciferase reporter assay in HepG2 cells
Protocol: as §3, §4

[7] = molecular target: T2, GPBAR1 Ser270Gly (Homo sapiens, UniProt Q8TDU6, S270G); assay: CRE-luc reporter assay with mutated GPBAR1 variant in HepG2 cells; assay type: cell-based
T2 construct: expressed in transfected cells; host or cells: HepG2

[8] = molecular target: pregnane X receptor (PXR) (Homo sapiens, UniProt O75469); assay: Nuclear receptor specificity luciferase reporter assay in HepG2 cells
Protocol: as §3, §4

[9] = MTS viability assay; assay type: cell-based, human; conditions: human, vehicle = 100%
Protocol: (§1) The potential cytotoxicity of 7-alkylated chenodeoxycholic acid derivatives were assessed in different human (HepG2, HepaRG and Huh7) and murine (AML12) hepatocyte-derived cell lines. For this purpose, hepatic cells were treated at increasing concentration for 24h and analyzed by MTS viability assay.
(§2) Table S2. Cell viability was determined using the Cell Titer 96 Aqueous One Solution Cell Proliferation Assay (MTS assay) after treatment with test compounds for 24 h in four different hepatic cell lines. Vehicle (0.1% DMSO) and background (10% SDS; v/v, toxic control) controls of cell viability were set to be 100% and 0%, respectively.

[10] = system: HepaRG; assay: MTS viability assay; assay type: cell-based, human; conditions: Homo sapiens, 24 h, MTS, read-out: IC50 (µM), cell viability
Protocol: as §1, §2

[11] = system: Huh7; assay: MTS viability assay; assay type: cell-based, human; conditions: Homo sapiens, Huh-7; Huh7, 24 h, MTS; read-out: IC50 (µM), cell viability
Protocol: as §1, §2

[12] = system: HepG2; assay: MTS viability assay; assay type: cell-based, human; conditions: Homo sapiens; HepG2, 24 h, MTS; read-out: IC50 (µM), cell viability
Protocol: as §1, §2

thyroid receptor (TRα), sequence (P10827 163-410 isoform P10827-2 limits assumed): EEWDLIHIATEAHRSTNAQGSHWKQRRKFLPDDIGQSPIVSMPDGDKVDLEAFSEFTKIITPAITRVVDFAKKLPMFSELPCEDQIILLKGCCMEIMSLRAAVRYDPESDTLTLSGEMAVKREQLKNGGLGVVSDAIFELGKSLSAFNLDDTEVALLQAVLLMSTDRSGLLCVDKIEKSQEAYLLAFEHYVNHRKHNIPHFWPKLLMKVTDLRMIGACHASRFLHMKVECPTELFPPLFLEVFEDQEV
constitutive androstane receptor (CAR), sequence (Q14994 with tags, fused parts or gaps isoform Q14994-8 DEL233-236): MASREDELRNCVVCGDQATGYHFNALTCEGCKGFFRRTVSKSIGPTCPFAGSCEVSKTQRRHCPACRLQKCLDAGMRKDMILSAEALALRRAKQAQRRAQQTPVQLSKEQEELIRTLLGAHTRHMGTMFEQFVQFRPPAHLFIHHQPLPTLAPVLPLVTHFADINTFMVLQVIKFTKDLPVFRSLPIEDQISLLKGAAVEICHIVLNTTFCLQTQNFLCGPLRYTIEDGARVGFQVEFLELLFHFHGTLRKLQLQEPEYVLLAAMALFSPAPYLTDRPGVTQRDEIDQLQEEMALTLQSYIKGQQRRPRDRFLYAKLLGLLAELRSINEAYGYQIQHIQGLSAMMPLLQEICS
constitutive androstane receptor (CAR), sequence (P19793 whole entry partner): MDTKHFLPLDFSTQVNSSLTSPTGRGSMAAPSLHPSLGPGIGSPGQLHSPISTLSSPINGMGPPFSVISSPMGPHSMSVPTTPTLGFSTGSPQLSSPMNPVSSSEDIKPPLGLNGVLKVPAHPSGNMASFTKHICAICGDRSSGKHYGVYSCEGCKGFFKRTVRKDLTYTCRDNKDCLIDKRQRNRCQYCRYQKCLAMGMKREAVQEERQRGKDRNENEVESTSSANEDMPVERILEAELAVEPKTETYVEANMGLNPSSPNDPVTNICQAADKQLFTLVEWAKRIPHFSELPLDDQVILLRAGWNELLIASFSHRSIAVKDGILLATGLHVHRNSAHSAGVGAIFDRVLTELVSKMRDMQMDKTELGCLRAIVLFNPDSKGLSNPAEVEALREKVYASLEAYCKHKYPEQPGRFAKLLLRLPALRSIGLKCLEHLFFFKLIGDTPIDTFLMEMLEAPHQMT
vitamin D receptor (VDR), sequence (P11473 whole entry): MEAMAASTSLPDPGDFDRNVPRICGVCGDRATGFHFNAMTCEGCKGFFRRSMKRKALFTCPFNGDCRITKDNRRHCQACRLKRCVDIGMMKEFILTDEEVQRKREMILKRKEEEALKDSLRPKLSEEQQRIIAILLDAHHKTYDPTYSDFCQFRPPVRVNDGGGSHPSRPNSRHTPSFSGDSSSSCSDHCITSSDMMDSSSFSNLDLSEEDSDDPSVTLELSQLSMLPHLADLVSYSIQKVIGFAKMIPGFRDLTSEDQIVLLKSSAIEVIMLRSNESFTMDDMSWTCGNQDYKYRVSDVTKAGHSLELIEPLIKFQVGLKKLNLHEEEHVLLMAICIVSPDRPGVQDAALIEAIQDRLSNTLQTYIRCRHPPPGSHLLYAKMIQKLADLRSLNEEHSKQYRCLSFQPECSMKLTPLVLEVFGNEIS
pregnane X receptor (PXR), sequence (O75469 whole entry): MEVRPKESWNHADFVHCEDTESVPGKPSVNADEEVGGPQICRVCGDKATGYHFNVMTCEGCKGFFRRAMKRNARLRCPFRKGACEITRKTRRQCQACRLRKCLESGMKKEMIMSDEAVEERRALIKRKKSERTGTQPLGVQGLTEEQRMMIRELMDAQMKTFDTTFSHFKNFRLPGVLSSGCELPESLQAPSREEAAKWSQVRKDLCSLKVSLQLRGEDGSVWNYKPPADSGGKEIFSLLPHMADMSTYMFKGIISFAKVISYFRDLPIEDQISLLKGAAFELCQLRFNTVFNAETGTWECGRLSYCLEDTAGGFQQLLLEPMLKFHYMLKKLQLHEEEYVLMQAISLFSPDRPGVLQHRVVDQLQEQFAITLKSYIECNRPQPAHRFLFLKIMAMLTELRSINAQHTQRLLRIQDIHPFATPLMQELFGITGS
T2 sequence (Q8TDU6 whole entry S270G): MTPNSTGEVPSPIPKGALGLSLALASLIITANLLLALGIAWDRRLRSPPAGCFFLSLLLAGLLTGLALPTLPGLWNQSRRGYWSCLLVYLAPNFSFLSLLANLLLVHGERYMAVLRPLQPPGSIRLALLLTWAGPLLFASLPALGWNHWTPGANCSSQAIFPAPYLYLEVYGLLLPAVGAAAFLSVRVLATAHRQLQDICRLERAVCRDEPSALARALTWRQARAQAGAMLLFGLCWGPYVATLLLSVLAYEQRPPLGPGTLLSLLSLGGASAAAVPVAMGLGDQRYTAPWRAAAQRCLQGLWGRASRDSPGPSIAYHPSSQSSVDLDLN

C/C=C1\C[C@@H]2C[C@H](O)CC[C@]2(C)[C@H]2CC[C@]3(C)[C@@H]([C@H](C)CCC(=O)O)CC[C@H]3[C@H]12 [2a, (E)-3α-Hydroxy-7-ethylidene-5β-cholan-24-oic acid]
melting point: 67 to 72 °C
GLP-1 secretion [1]: significant increase of GLP-1 secretion; also recorded: significantly stronger compared to LCA
antagonism of TRα activation by model ligand ([2]; 10 µM, with thyroxin 1 µM): did not antagonize
activation of TRα ([2]; agonistic assay, 24 h): did not activate
CRE-luc activation compared to LCA (in words) [3]: significantly increase CRE-luc activation more than LCA
EC50 ([3]; abstract, read-out: EC50, GPBAR1 agonist): 0.026 µM
antagonism of VDR activation by model ligand ([4]; 10 µM, with 1α,25(OH)2vitaminD3 10 nM): did not antagonize
activation of VDR ([4]; agonistic assay, 24 h): did not activate
BSEP mRNA level upregulated by OCA [5]: reduced
SHP mRNA level upregulated by OCA [5]: reduced
BSEP and SHP mRNA expression, compound per se [5]: did not have an impact
antagonism of CAR activation by model ligand ([6]; 10 µM, with CITCO 1 µM): did not antagonize
activation of CAR ([6]; agonistic assay, 24 h): did not activate
CRE-luc activation via GPBAR1 Ser270Gly [7]: partially preserved
antagonism of PXR activation by model ligand ([8]; 10 µM, with rifampicin 1 µM): did not antagonize
activation of PXR ([8]; agonistic assay, 24 h): did not activate
viability at 24 h, 10 µM ([9]; HepG2 cells, HepG2, 24 h): 99.7 ± 1.2%
viability at 24 h, 10 µM ([9]; HepaRG cells): 119 ± 6%
viability at 24 h, 10 µM ([9]; Huh7 cells, Huh7, 24 h): 111 ± 9.5%
IC50 [10]: > 200 µM
IC50 [11]: > 200 µM
IC50 [12]: > 200 µM

CCC[C@@]1(O)C[C@@H]2C[C@H](O)CC[C@]2(C)C2CC[C@@]3(C)C(CC[C@@H]3[C@H](C)CCC(=O)O)C21 (stereo partly drawn) [2f, 3α,7α-Dihydroxy-7β-propyl-5β-cholan-24-oic acid]
melting point: 100 to 105 °C
CRE-luc activation compared to LCA (in words) [3]: comparable activities to LCA
BSEP mRNA level upregulated by OCA [5]: reduced
SHP mRNA level upregulated by OCA [5]: reduced
BSEP and SHP mRNA expression, compound per se [5]: did not have an impact
viability at 24 h, 10 µM ([9]; HepG2 cells, HepG2, 24 h): 94.9 ± 11.7%
viability at 24 h, 10 µM ([9]; HepaRG cells): 89.4 ± 2.5%
viability at 24 h, 10 µM ([9]; Huh7 cells, Huh7, 24 h): 117 ± 2.3%
IC50 [10]: 97.3 µM
IC50 [11]: > 100 µM
IC50 [12]: 107 ± 1.1 µM
